Results taken from the supplement of paper PMC9663587.

Assays:
[1] = compound: CC(=O)c1c(C)c2cnc(Nc3ccc(N4CCNCC4)cn3)nc2n(C2CCCC2)c1=O; assay: increase in dead-cell fraction, 72 h; higher = more death;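 further: breast cancer cell lines in 384-well plates, stained with Hoechst plus LIVE/DEAD far red dye and imaged, cells above an LDR intensity threshold counted dead, Hoechst-negative corpses included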
[2] = compound: CCc1cnn2c(NCc3ccc[n+]([O-])c3)cc(N3CCCC[C@H]3CCO)nc12; assay: as above
THZ1 = compound: CN(C)C/C=C/C(=O)Nc1ccc(C(=O)Nc2cccc(Nc3ncc(Cl)c(-c4c[nH]c5ccccc45)n3)c2)cc1 [THZ1]; assay: as above
LEE011/Ribociclib = compound: CN(C)C(=O)c1cc2cnc(Nc3ccc(N4CCNCC4)cn3)nc2n1C1CCCC1 [LEE011/Ribociclib]; assay: as above
[3] = compound: CCN1CCN(Cc2ccc(Nc3ncc(F)c(-c4cc(F)c5nc(C)n(C(C)C)c5c4)n3)nc2)CC1; assay: as above
Neratinib/HKI272 = compound: CCOc1cc2ncc(C#N)c(Nc3ccc(OCc4ccccn4)c(Cl)c3)c2cc1NC(=O)/C=C/CN(C)C [Neratinib/HKI272]; assay: as above
BSJ-03-123 = compound: CC(=O)c1c(C)c2cnc(Nc3ccc(N4CCN(CCOCCOCCOCCNC(=O)COc5cccc6c5C(=O)N(C5CCC(=O)NC5=O)C6=O)CC4)cn3)nc2n(C2CCCC2)c1=O [BSJ-03-123]; assay: as above
Flavopiridol = compound: CN1CC[C@H](c2c(O)cc(O)c3c(=O)cc(-c4ccccc4Cl)oc23)[C@H](O)C1 [Flavopiridol]; assay: as above
Ipatasertib/GDC0068 = compound: CC(C)NC[C@@H](C(=O)N1CCN(c2ncnc3c2[C@H](C)C[C@H]3O)CC1)c1ccc(Cl)cc1 [Ipatasertib/GDC0068]
[4] = compound: COc1ccc2c(c1)[C@]1(C[C@H]1c1ccc3c(/C=C/c4ccc(CN5C[C@@H](C)O[C@@H](C)C5)cc4)n[nH]c3c1)C(=O)N2
AZD7762 = compound: NC(=O)Nc1cc(-c2cccc(F)c2)sc1C(=O)N[C@H]1CCCNC1 [AZD7762]
Tivantinib/ARQ197 = compound: O=C1NC(=O)[C@@H](c2cn3c4c(cccc24)CCC3)[C@@H]1c1c[nH]c2ccccc12 [Tivantinib/ARQ197]
AZD6738 = compound: C[C@@H]1COCCN1c1cc(C2([S@](C)(=N)=O)CC2)nc(-c2cc[nH]c3nccc2-3)n1 [AZD6738]
BSJ-01-175 = compound: CN(C)C/C=C/C(=O)Nc1ccc(O[C@@H]2CCC[C@@H](Nc3ncc(Cl)c(-c4c[nH]c5ccccc45)n3)C2)cc1 [BSJ-01-175]
[5] = compound: CCN1CCN(Cc2ccc(Nc3ncc(F)c(-c4cc(F)c5nc(C)n(C(C)C)c5c4)n3)nc2)CC1
[6] = compound: CCC1=CN=CN=C1N2CCN(CC2)CC3=NC4=C(N3)C=C(C=C4)C(F)(F)F
AZD2014 = compound: CNC(=O)c1cccc(-c2ccc3c(N4CCOC[C@@H]4C)nc(N4CCOC[C@@H]4C)nc3n2)c1 [AZD2014]
Vorinostat = compound: O=C(CCCCCCC(=O)Nc1ccccc1)NO [Vorinostat]
[7] = compound: CC(=O)Nc1cccc(-n2c(=O)n(C3CC3)c(=O)c3c(Nc4ccc(I)cc4F)n(C)c(=O)c(C)c32)c1
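Wherever GR50, 72 h is given: breast cancer and non-malignant breast epithelial cell lines, Deep Dye Drop or Dye Drop imaging, nine half-log doses, GR normalized to time-zero plates and DMSO-only controls.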

184A1
increase in dead-cell fraction ([1]; 0.0003162 µM): -0.0004 | increase in dead-cell fraction ([1]; 0.001 µM): 0.0016 | increase in dead-cell fraction ([1]; 0.003162 µM): -0.0008 | increase in dead-cell fraction ([1]; 0.01 µM): 0.0001 | increase in dead-cell fraction ([1]; 0.03162 µM): 0.0086 | increase in dead-cell fraction ([1]; 0.1 µM): 0.0183 | increase in dead-cell fraction ([1]; 0.3162 µM): 0.0224 | increase in dead-cell fraction ([1]; 1 µM): 0.0414 | increase in dead-cell fraction ([1]; 3.162 µM): 0.0383 | increase in dead-cell fraction ([2]; 0.0001 µM): -0.0039 | increase in dead-cell fraction ([2]; 0.0003162 µM): -0.0006 | increase in dead-cell fraction ([2]; 0.001 µM): -0.0027 | increase in dead-cell fraction ([2]; 0.003162 µM): -0.0019 | increase in dead-cell fraction ([2]; 0.01 µM): 0.0164 | increase in dead-cell fraction ([2]; 0.03162 µM): 0.277 | increase in dead-cell fraction ([2]; 0.1 µM): 0.127 | increase in dead-cell fraction ([2]; 0.3162 µM): 0.363 | increase in dead-cell fraction ([2]; 1 µM): 0.368 | increase in dead-cell fraction (THZ1; 0.0001 µM): -0.0006 | increase in dead-cell fraction (THZ1; 0.0003162 µM): 0.0038 | increase in dead-cell fraction (THZ1; 0.001 µM): 0.0021 | increase in dead-cell fraction (THZ1; 0.003162 µM): 0.0076 | increase in dead-cell fraction (THZ1; 0.01 µM): 0.0448 | increase in dead-cell fraction (THZ1; 0.03162 µM): 0.169 | increase in dead-cell fraction (THZ1; 0.1 µM): 0.175 | increase in dead-cell fraction (THZ1; 0.3162 µM): 0.152 | increase in dead-cell fraction (LEE011/Ribociclib; 0.001 µM): 0.0076 | increase in dead-cell fraction (LEE011/Ribociclib; 0.003162 µM): 0.0015 | increase in dead-cell fraction (LEE011/Ribociclib; 0.01 µM): 0.0139 | increase in dead-cell fraction (LEE011/Ribociclib; 0.03162 µM): 0.0172 | increase in dead-cell fraction (LEE011/Ribociclib; 0.1 µM): 0.0129 | increase in dead-cell fraction (LEE011/Ribociclib; 0.3162 µM): 0.0139 | increase in dead-cell fraction (LEE011/Ribociclib; 1 µM): 0.0153 | increase in dead-cell fraction (LEE011/Ribociclib; 3.162 µM): 0.015 | increase in dead-cell fraction (LEE011/Ribociclib; 10 µM): 0.041 | increase in dead-cell fraction ([3]; 0.001 µM): 0.0016 | increase in dead-cell fraction ([3]; 0.003162 µM): 0.0047 | increase in dead-cell fraction ([3]; 0.01 µM): 0.0067 | increase in dead-cell fraction ([3]; 0.03162 µM): 0.0185 | increase in dead-cell fraction ([3]; 0.1 µM): 0.0336 | increase in dead-cell fraction ([3]; 0.3162 µM): 0.0578 | increase in dead-cell fraction ([3]; 1 µM): 0.056 | increase in dead-cell fraction ([3]; 3.162 µM): 0.0434 | increase in dead-cell fraction ([3]; 10 µM): 0.229 | increase in dead-cell fraction (Neratinib/HKI272; 0.0003162 µM): -0.004 | increase in dead-cell fraction (Neratinib/HKI272; 0.001 µM): -0.0007 | increase in dead-cell fraction (Neratinib/HKI272; 0.003162 µM): -0.0029 | increase in dead-cell fraction (Neratinib/HKI272; 0.01 µM): 0.001 | increase in dead-cell fraction (Neratinib/HKI272; 0.03162 µM): 0.0214 | increase in dead-cell fraction (Neratinib/HKI272; 0.1 µM): 0.0256 | increase in dead-cell fraction (Neratinib/HKI272; 0.3162 µM): 0.0311 | increase in dead-cell fraction (Neratinib/HKI272; 1 µM): 0.028 | increase in dead-cell fraction (Neratinib/HKI272; 3.162 µM): 0.0419 | increase in dead-cell fraction (BSJ-03-123; 0.001 µM): 0.0061 | increase in dead-cell fraction (BSJ-03-123; 0.003162 µM): 0.0101 | increase in dead-cell fraction (BSJ-03-123; 0.01 µM): 0.0181 | increase in dead-cell fraction (BSJ-03-123; 0.03162 µM): 0.0097 | increase in dead-cell fraction (BSJ-03-123; 0.1 µM): 0.0423 | increase in dead-cell fraction (BSJ-03-123; 0.3162 µM): 0.0318 | increase in dead-cell fraction (BSJ-03-123; 1 µM): 0.0505 | increase in dead-cell fraction (BSJ-03-123; 3.162 µM): 0.0581 | increase in dead-cell fraction (BSJ-03-123; 10 µM): 0.179 | increase in dead-cell fraction (Flavopiridol; 0.0001 µM): -0.0061 | increase in dead-cell fraction (Flavopiridol; 0.0003162 µM): 0.0046 | increase in dead-cell fraction (Flavopiridol; 0.001 µM): -0.0038 | increase in dead-cell fraction (Flavopiridol; 0.003162 µM): -0.0001 | increase in dead-cell fraction (Flavopiridol; 0.01 µM): 0.0054 | increase in dead-cell fraction (Flavopiridol; 0.03162 µM): 0.0223 | increase in dead-cell fraction (Flavopiridol; 0.1 µM): 0.0902 | increase in dead-cell fraction (Flavopiridol; 0.3162 µM): 0.231 | increase in dead-cell fraction (Flavopiridol; 1 µM): 0.0866 | GR50, 72 h (Ipatasertib/GDC0068): > 10 µM | GR50, 72 h [4]: 0.00198 µM | GR50, 72 h (AZD7762): 2.62 µM | GR50, 72 h (Tivantinib/ARQ197): 0.0644 µM | GR50, 72 h (AZD6738): > 10 µM | GR50, 72 h (BSJ-01-175): 0.00519 µM | GR50, 72 h [5]: 0.0256 µM | GR50, 72 h [6]: > 10 µM | GR50, 72 h (AZD2014): 0.00164 µM | GR50, 72 h (Vorinostat): 2.52 µM | GR50, 72 h [7]: 0.00069 µM
